In article PMC9696794, “Synthesis and Antimicrobial Activity of Short Analogues of the Marine Antimicrobial Peptide Turgencin A: Effects of SAR Optimizations, Cys-Cys Cyclization and Lipopeptide Modifications” (International Journal of Molecular Sciences, 2022):
Where a SMILES comes first, the peptide text is derived from it. The star is where a group is joined. Decanoyl = CCCCCCCCCC(=O)*; Octanoyl = CCCCCCCC(=O)*

How the values were obtained:
[1] = tested on: B. subtilis (Bs, ATCC 23857); assay: microbe, parasite or virus in culture; format: cell-based, Bacillus subtilis; details: ATCC 23857, 24 h
Procedure: (§1) All cyclic and linear peptides were screened for antibacterial activity against four Gram-positive strains: B. subtilis (Bs, ATCC 23857), C. glutamicum (Cg, ATCC 13032), S. aureus (Sa, ATCC 9144) and S. epidermidis RP62A (Se, ATCC 35984), and two Gram-negative strains: E. coli (Ec, ATCC 25922) and P. aeruginosa (Pa, ATCC 27853). The activity was assessed using a broth microdilution assay according to a modified CLSI-based method. Briefly, overnight bacterial cultures were grown in Mueller–Hinton (MH) broth medium (Difco Laboratories, Detroit, MI, USA) for 2 h at room temperature. The optical density (OD600) was measured, and the bacterial suspensions were adjusted to 2.5–3 × 10^4 CFU/mL in MH medium. The bacterial suspension (50 µL) was distributed in 96-well plates (Nunc, Roskilde, Denmark) preloaded with two-fold dilution series (256 to 1 µg/mL) of peptide solutions (50 µL), giving a final well volume of 100 µL. The microplates were incubated in an EnVision 2103 microplate reader (PerkinElmer, Llantrisant, UK) at 35 °C, with OD595 recorded every hour for 24 h. MIC was defined as the lowest concentration of peptides showing an optical density less than 10% of the negative (growth) control, consisting of bacterial suspension and water. Polymyxin B sulfate (Sigma-Aldrich, St. Louis, MO, USA) and chlorhexidine acetate (CHX, Fresenius Kabi, Halden, Norway), both with concentrations ranging from 12.5 to 0.09 μg/mL, served as positive (growth inhibition) controls. All peptides were tested in triplicate.

[2] = tested on: C. glutamicum (Cg, ATCC 13032); assay: microbe, parasite or virus in culture; format: cell-based, Corynebacterium glutamicum; details: ATCC 13032, 24 h
Procedure: as §1

[3] = tested on: S. aureus (Sa, ATCC 9144); assay: microbe, parasite or virus in culture; format: cell-based, Staphylococcus aureus; details: ATCC 9144, 24 h
Procedure: as §1

[4] = tested on: S. epidermidis RP62A (Se, ATCC 35984); assay: microbe, parasite or virus in culture; format: cell-based, Staphylococcus epidermidis; details: ATCC 35984, 24 h
Procedure: as §1

E. coli (Ec, ATCC 25922) = assay: microbe, parasite or virus in culture; format: cell-based, Escherichia coli; details: ATCC 25922, 24 h
Procedure: as §1

[5] = tested on: P. aeruginosa (Pa, ATCC 27853); assay: microbe, parasite or virus in culture; format: cell-based, Pseudomonas aeruginosa; details: ATCC 27853, 24 h
Procedure: as §1

all bacterial strains = assay: Antibacterial MIC assay, all bacterial strains together (range or geometric mean); format: cell-based; details: for GM (geometric mean of the MIC values against all bacterial strains): Table 1, six bacterial strains; for GM of MIC Tot. bact.: Table S3, all bacterial test strains, MIC >256 set to 256
Procedure: The selectivity index (SI) of the peptides towards bacteria over eukaryotic cells was calculated using the geometric mean (GM) of the MIC values against all bacterial test strains, according to the method by Orlov et al.. The SI for each peptide was determined as the ratio of the RBC-EC50 value by the corresponding GM value. Larger SI values indicate greater selectivity for microbial cells. […] In general, the SI was higher against the Gram-positive bacteral strains than the Gram-negative strains. (Table S3). Overall, peptides displaying EC50 < 100 µg/mL were considered too haemolytic to be of interest for further exploration.
as §1

A. pullulans (Ap) = assay: microbe, parasite or virus in culture; format: cell-based, Aurobasidium pollulans; details: 48 h
Procedure: (§2) The synthesized peptides were screened for antifungal activity against the molds A. pullulans (Ap) and Rhodotorula sp. (Rh) (both obtained from Professor Arne Tronsmo, The Norwegian University of Life Sciences, Ås, Norway) and the yeast C. albicans (Ca, ATCC 10231) as previously described. In short, fungal spores were grown in potato dextrose broth media (Difco) containing 2% D(+)-glucose (Merck, Darmstadt, Germany) at 25–30 °C while shaking at 200 rpm overnight. The cultures were diluted with a dextrose media containing glucose to a concentration of approx. 4 × 10^5 spores/mL. Aliquots of the cultures (50 µL) were transferred to 96 well microtiter plates preloaded with the synthetic peptides (50 µL) in two-fold serial dilutions (256 to 1 µg/mL). Polymyxin B and CHX (both with concentrations ranging from 12.5 to 0.09 μg/mL) served as positive antibiotic controls. The microtiter plates containing the fungal spores and the test peptides were incubated at room temperature for 48 h and OD600 was recorded using a Synergy H1 Hybrid microplate reader system (BioTek, Winooski, VT, USA). MIC was defined as the lowest peptide concentration showing an optical density less than 10% of the negative (growth) control. All experiments were performed in triplicate.

[6] = tested on: C. albicans (Ca, ATCC 10231); assay: microbe, parasite or virus in culture; format: cell-based, Candida albicans; details: ATCC 10231, 48 h
Procedure: as §2

Rhodotorula sp. (Rh) = assay: microbe, parasite or virus in culture; format: cell-based; details: 48 h
Procedure: as §2

[7] = tested on: human red blood cells (RBC); assay: Haemolytic activity assay; format: cell-based; details: for Selectivity index (SI) G- / Selectivity index (SI) G+ / Selectivity index (SI) Fungi: Table S3, highest tested concentration used where EC50 above it; for Selectivity index (SI) G-: EC50/GM of Gram-negative strains; for Selectivity index (SI) G+: EC50/GM of Gram-positive strains; for Selectivity index (SI) Fungi: EC50/GM of fungi; for SI (selectivity index = EC50/GM): haemolytic EC50 over GM of MIC against all bacterial strains, Table 1; for RBC Tox. (EC50), haemolytic activity: human RBC, 1 h, 37 °C, concentration giving 50% haemolysis
Procedure: The synthetized lipopeptides were screened for haemolytic activity against human red blood cells (RBC), in concentrations ranging from 500 to 3.9 μM, following a previously described protocol. In brief, haemolysis was determined using a heparinizied (10 IU/mL) fraction of freshly drawn human blood. A second fraction of blood, which was collected in test tubes containing ethylenediaminetetraacetic acid (EDTA, Vacutest, KIMA, Arzergrande, Italy), was used for determination of the hematocrit (hct). Plasma was removed from heparinized blood by washing three times with prewarmed phosphate-buffered saline (PBS) before being adjusted to a hematocrit of 4%. Peptides dissolved in dimethyl sulfoxide (DMSO) were further diluted with PBS to a final DMSO content of ≤1%. Triton X-100 (Sigma-Aldrich, St. Louis, MO, USA), used at a final concentration of 0.1%, served as a positive control for 100% haemolysis, whereas 1% DMSO in PBS buffer served as a negative control where no toxicity was detected. Duplicates of test solutions and erythrocytes, with 1% hct final concentration, were prepared in a 96-well polypropylene V-bottom plate (Nunc, Fischer scientific, Oslo, Norway). They were incubated under agitation at 37 °C and 800 rpm for 1 h. After centrifugation (5 min, 3000× g), 100 µL from each well were transferred to a flat-bottomed 96-well plate and absorbance was measured at 545 nm with a microplate reader (SpectraMax 190, Molecular Devices, San Jose, CA, USA). After subtracting PBS background, the percentage of haemolysis was calculated as the ratio of the absorbance in the peptide-treated and surfactant-treated samples. Three independent experiments were performed, and EC50 (the concentration giving 50% haemolysis) values are presented as averages.

[8] = tested on: Gram-positive bacterial strains; details: Table S3; MIC >256 set to 256
Procedure: as §1

[9] = tested on: Gram-negative bacterial strains (E. coli and P. aeruginosa); assay: Antibacterial MIC assay, Gram-negative strains together (range or geometric mean); format: cell-based; details: Table S3; MIC >256 set to 256
Procedure: as §1

[10] = tested on: fungi (A. pullulans, C. albicans, Rhodotorula sp.); assay: Antifungal MIC assay, all fungi together (range or geometric mean); format: cell-based; details: Table S3; MIC >128 set to 128
Procedure: as §2

SMILES	Antimicrobial Activity (MIC) Gram + Bs [1] [µg/mL]	Antimicrobial Activity (MIC) Gram + Cg [2] [µg/mL]	Antimicrobial Activity (MIC) Gram + Sa [3] [µg/mL]	Antimicrobial Activity (MIC) Gram + Se [4] [µg/mL]	Antimicrobial Activity (MIC) Gram − Ec (E. coli (Ec, ATCC 25922)) [µg/mL]	Antimicrobial Activity (MIC) Gram − Pa [5] [µg/mL]	GM (geometric mean of the MIC values against all bacterial strains) (all bacterial strains) [µg/mL]	GM of MIC Tot. bact. (all bacterial strains) [µg/mL]	Antimicrobial Activity (MIC) Fungi Ap (A. pullulans (Ap)) [µg/mL]	Antimicrobial Activity (MIC) Fungi Ca [6] [µg/mL]	Antimicrobial Activity (MIC) Fungi Rh (Rhodotorula sp. (Rh)) [µg/mL]	Selectivity index (SI) G- [7]	Selectivity index (SI) G+ [7]	Selectivity index (SI) Fungi [7]	SI (selectivity index = EC50/GM) [7]	RBC Tox. (EC50), haemolytic activity [7] [µg/mL]	GM of MIC G+ [8] [µg/mL]	GM of MIC G- [9] [µg/mL]	GM of MIC Fungi [10] [µg/mL]
CCCCCCCC(=O)N[C@@H](CS)C(=O)NCC(=O)N[C@@H](CCCNC(=N)N)C(=O)N[C@@H](CCCNC(=N)N)C(=O)N[C@@H](Cc1c[nH]c2ccccc12)C(=O)NCC(=O)N[C@@H](Cc1c[nH]c2ccccc12)C(=O)N[C@@H](Cc1c[nH]c2ccccc12)C(=O)N[C@@H](CCCNC(=N)N)C(=O)N[C@@H](CS)C(=O)N[C@@H](CCCNC(=N)N)C(=O)N[C@@H](CC(C)C)C(N)=O [Peptide C8-Turg-6, C8- CGRRWGWWRC RL-NH2] (Octanoyl-CGRRWGWWRCRL-NH2)	4	4	16	8	8	32	9	9	128	64	128	3	8	1	6	54	7	16	102
CCCCCCCCCC(=O)N[C@@H](CS)C(=O)NCC(=O)N[C@@H](CCCCN)C(=O)N[C@@H](CCCCN)C(=O)N1CCC[C@H]1C(=O)NCC(=O)NCC(=O)N[C@@H](Cc1c[nH]c2ccccc12)C(=O)N[C@@H](CCCCN)C(=O)N[C@@H](CS)C(=O)N[C@@H](CCCCN)C(=O)N[C@@H](CC(C)C)C(N)=O [Peptide C10-Turg-1, C10- CGKKPGGWKC KL-NH2] (Decanoyl-CGKKPGGWKCKL-NH2)	4	4	16	8	16	32	10	10	32	64	8	> 42	> 142	> 38	>95	>957	7	23	25
